Test results reported in patent US20240262812A1, “N-SUBSTITUTED PHENYLSULFONAMIDE COMPOUND AND USE THEREOF” (Shanghai Leado Pharmatech Co., Ltd., priority 2021, published 2024).
pIC50: −log10 of the molar value. Blank lines part the entries; values can stand above or below the compound they belong to.

Target: T1, mTRPA1 (Mus musculus, UniProt Q8BLA8)
T1 construct: expressed in transfected cells
Assay: IonWorks Barracuda (IWB) automated patch clamp, TRPA1 inhibitory activity
Format: cell-based
Conditions: HEK293 cells stably expressing mTRPA1, current induced by AITC, amplitude at +100 mV; read-out: IC50 (inhibition activity on TRPA1)
Description: In this example, the inhibitory activity of the compounds prepared in some examples of the present invention on transient receptor potential channel protein ankyrin 1 (TRPA1) was tested. Among them, compound of formula A (WO2010075353) was used as the positive control compound: […]
Test method using IonWorks Barracuda (IWB) automated patch clamp detection: HEK293 cells stably expressing mTRPA1 were placed in the T175 culture flask with DMEM medium containing 15 µg/mL Blasticidin S HCl, 200 µg/mL Hygromycin B and 10% FBS, and cultured in 37° C., 5% CO2 incubator. When the cell density reached about 80%, the culture medium was removed, washed once with phosphate buffered saline (PBS) without calcium and magnesium. 3 mL of Trypsin was added to digest for 2 min, 7 mL of culture solution was added to terminate the digestion. The cells were collected to 15 mL centrifuge tube and centrifuged at 800 rpm for 3 min. After the supernatant was removed, the cells were added to appropriate volume of extracellular fluid for re-suspending, and the cell density was controlled at 2-3×10^6/mL for use in IWB experiment. Extracellular fluid formulation (in mM): 140 NaCl, 5 KCl, 1 MgCl2, 10 HEPES, 0.5 EGTA, 10 Glucose (pH 7.4); intracellular fluid formulation (in mM): 140 CsCl, 10 HEPES, 5 EGTA, 0.1 CaCl2, 1 MgCl2 (pH 7.2). 28 mg/mL of amphotericin B was freshly prepared with DMSO on the day of experiment, and then final concentration of 0.1 mg/mL was prepared with intracellular fluid.
Population patch clamp (PPC) plate was used in IWB experiment. The entire detection process was automatically carried out by the instrument, that is, extracellular fluid was added into 384 wells of PPC plate, and after intracellular fluid was added under PPC plate (in plenum), 6 µL of cell fluid was added for sealing test, and finally the intracellular fluid in plenum was replaced with intracellular fluid containing amphotericin B to establish a whole-cell recording mode after perforating sealed cells. The sampling frequency for recording TPRA1 current was 10 kHz, the cells were clamped at 0 mV, the voltage stimulation command (channel protocol) was a ramp voltage from −100 mV to +100 mV for 300 ms. This voltage stimulation was applied every 10 s, mTRPA1 current was induced by 300 µM AITC.
Data recording and current amplitude measurement export were carried out by IWB software (version 2.5.3, Molecular Devices Corporation, Union City, CA). No statistics was recorded for holes with sealing impedance lower than 20 MΩ. The original current data was corrected by software for leak subtraction. TRPA1 current amplitude was measured at +100 mV. […] If IC50 value of HC030031 exceeded 3 times of the average IC50 value previously obtained on each plate, it would be re-tested. The dose-effect curve of compounds and IC50 were fitted and calculated by GraphPad Prism 5.02 (GraphPad Software, San Diego, CA).
Some compounds of the present invention were subjected to IC50 inhibition activity test using the IonWorks Barracuda (IWB) automated patch clamp detection method.

T1 sequence (Q8BLA8 whole entry): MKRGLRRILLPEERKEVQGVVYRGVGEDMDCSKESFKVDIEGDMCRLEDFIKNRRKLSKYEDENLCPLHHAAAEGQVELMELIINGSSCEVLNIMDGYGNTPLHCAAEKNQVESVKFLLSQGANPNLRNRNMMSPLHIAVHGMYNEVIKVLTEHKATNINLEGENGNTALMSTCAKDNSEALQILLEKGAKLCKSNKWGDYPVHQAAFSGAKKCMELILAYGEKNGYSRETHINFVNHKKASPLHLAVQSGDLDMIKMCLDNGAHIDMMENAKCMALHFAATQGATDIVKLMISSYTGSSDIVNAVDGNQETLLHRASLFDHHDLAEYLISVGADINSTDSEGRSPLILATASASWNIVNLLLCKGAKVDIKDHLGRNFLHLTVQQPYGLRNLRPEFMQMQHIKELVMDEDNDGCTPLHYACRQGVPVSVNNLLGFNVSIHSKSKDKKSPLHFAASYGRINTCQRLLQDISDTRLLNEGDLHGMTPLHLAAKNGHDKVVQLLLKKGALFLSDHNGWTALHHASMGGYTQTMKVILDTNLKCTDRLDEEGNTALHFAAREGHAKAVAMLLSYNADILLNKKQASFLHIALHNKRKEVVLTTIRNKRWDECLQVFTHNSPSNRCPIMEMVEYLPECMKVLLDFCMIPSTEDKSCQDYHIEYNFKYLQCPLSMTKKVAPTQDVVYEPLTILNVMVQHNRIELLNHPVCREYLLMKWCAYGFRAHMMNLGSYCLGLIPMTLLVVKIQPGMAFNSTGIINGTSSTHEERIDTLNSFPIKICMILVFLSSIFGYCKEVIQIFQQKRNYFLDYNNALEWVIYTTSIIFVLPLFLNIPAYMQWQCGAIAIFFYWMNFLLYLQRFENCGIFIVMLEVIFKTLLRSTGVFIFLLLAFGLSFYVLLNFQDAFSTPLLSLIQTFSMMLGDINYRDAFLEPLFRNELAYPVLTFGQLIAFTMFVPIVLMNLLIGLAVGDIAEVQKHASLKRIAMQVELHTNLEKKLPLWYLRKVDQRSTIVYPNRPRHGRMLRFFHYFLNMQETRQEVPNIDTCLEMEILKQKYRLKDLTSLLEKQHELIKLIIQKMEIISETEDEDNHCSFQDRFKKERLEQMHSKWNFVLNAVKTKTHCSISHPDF

Structure (SMILES): CNCc1ccc(-c2c(C)noc2C)c(NS(=O)(=O)c2ccccc2)c1 [IA-53, N-(2-(3,5-dimethylisoxazol-4-yl)-5-((methylamino)methyl)phenyl)benzenesulfonamide]
pIC50: 5.00 to 5.30

Structure (SMILES): CNCc1ccc(-c2cc[nH]n2)c(NS(=O)(=O)c2ccccc2)c1 [IA-54, N-(5-((methylamino)methyl)-2-(1H-pyrazol-5-yl)phenyl)benzenesulfonamide]
pIC50: 5.30 to 6.00

Structure (SMILES): CNCc1ccc(-c2c(C)nn(C)c2C)c(NS(=O)(=O)c2ccccc2)c1 [IA-57, N-(5-((methylamino)methyl)-2-(1,3,5-trimethyl-1H-pyrazole-4-yl)phenyl) benzenesulfonamide]
pIC50: 4.30 to 4.70

Structure (SMILES): CNCc1ccc(-c2c(C)n[nH]c2C)c(NS(=O)(=O)c2ccccc2)c1 [IA-58, N-(2-(3,5-dimethyl-1H-pyrazole-4-yl)-5-((methylamino)methyl)phenyl)benzenesulfonamide]
pIC50: 4.00 to 4.30

Structure (SMILES): CNCc1ccc(-c2ncc(C)s2)c(NS(=O)(=O)c2ccccc2)c1 [IA-59, N-(5-((methylamino)methyl)-2-(5-methylthiazol-2-yl)phenyl)benzenesulfonamide]
pIC50: 5.00 to 5.30

Structure (SMILES): NCc1ccc(-c2cc[nH]n2)c(NS(=O)(=O)c2ccsc2)c1 [ID-8, N-(5-(aminomethyl)-2-(1H-pyrazole-3-yl)phenyl)thiophene-3-sulfonamide]
pIC50: 5.30 to 6.00

Structure (SMILES): CC(=O)NCc1ccc(NS(=O)(=O)c2ccsc2)c(-c2ccco2)c1 [IE, N-(3-(furan-2-yl)-4-(thiophene-3-sulfonamide)benzyl)acetamide]
pIC50: 4.30 to 4.70

Structure (SMILES): CN(C)Cc1ccc(NS(=O)(=O)c2ccsc2)c(-c2ccco2)c1 [IJ-1, N-(4-((dimethylamino)methyl)-2-(furan-2-yl)phenyl)thiophene-3-sulfonamide]
pIC50: 5.30 to 6.00

Structure (SMILES): CNCc1ccc(-n2nccn2)c(NS(=O)(=O)c2ccccc2)c1 [IQ-3, N-(5-((methylamino)methyl)-2-(2H-1,2,3-triazol-2-yl)phenyl)benzenesulfonamide]
pIC50: 5.30 to 6.00

Structure (SMILES): CNCc1ccc(-n2ccnn2)c(NS(=O)(=O)c2ccccc2)c1 [IQ-4, N-(5-((methylamino)methyl)-2-(1H-1,2,3-triazol-1-yl)phenyl)benzenesulfonamide]
pIC50: 5.00 to 5.30

Structure (SMILES): CNCCc1ccc(NS(=O)(=O)c2ccsc2)c(-c2ccco2)c1 [IS, N-(2-(furan-2-yl)-4-(2-(methylamino)ethyl)phenyl)thiophene-3-sulfonamide]
pIC50: 5.30 to 6.00

Structure (SMILES): CC(N)c1ccc(N(C)S(=O)(=O)c2ccccc2)c(-c2ccco2)c1 (stereo not drawn) [IU-1]
pIC50: 5.30 to 6.00

Structure (SMILES): CCC(N)c1ccc(NS(=O)(=O)c2ccccc2)c(-c2ccco2)c1 (stereo not drawn) [IU-3, N-(4-(1-aminopropyl)-2-(furan-2-yl)phenyl)benzenesulfonamide]
pIC50: > 6.00

Structure (SMILES): CCCC(N)c1ccc(NS(=O)(=O)c2ccccc2)c(-c2ccco2)c1 (stereo not drawn) [IU-4, N-(4-(1-aminobutyl)-2-(furan-2-yl)phenyl)benzenesulfonamide]
pIC50: > 6.00

Structure (SMILES): CC(C)C(N)c1ccc(NS(=O)(=O)c2ccccc2)c(-c2ccco2)c1 (stereo not drawn) [IU-5, N-(4-(1-amino-2-methylpropyl)-2-(furan-2-yl)phenyl)benzenesulfonamide]
pIC50: > 6.00

Structure (SMILES): NC(c1ccc(NS(=O)(=O)c2ccccc2)c(-c2ccco2)c1)C1CC1 (stereo not drawn) [IU-6, N-(4-(amino(cyclopropyl)methyl)-2-(furan-2-yl)phenyl)benzenesulfonamide]
pIC50: > 6.00

Structure (SMILES): NC(c1ccccc1)c1ccc(NS(=O)(=O)c2ccccc2)c(-c2ccco2)c1 (stereo not drawn) [IU-7, N-(4-(amino(phenyl)methyl)-2-(furan-2-yl)phenyl)benzenesulfonamide]
pIC50: 5.30 to 6.00

Structure (SMILES): NC(Cc1ccccc1)c1ccc(NS(=O)(=O)c2ccccc2)c(-c2ccco2)c1 (stereo not drawn) [IU-8, N-(4-(1-amino-2-phenylethyl)-2-(furan-2-yl)phenyl)benzenesulfonamide]
pIC50: 4.70 to 5.00

Structure (SMILES): CC(N)c1ccc(-c2ccco2)c(NS(=O)(=O)c2ccccc2)c1 (stereo not drawn) [IU-9, N-(5-(1-aminoethyl)-2-(furan-2-yl)phenyl)benzenesulfonamide]
pIC50: > 6.00

Structure (SMILES): CNC(C)c1ccc(-c2ccco2)c(NS(=O)(=O)c2ccccc2)c1 (stereo not drawn) [IV-2, N-(2-(furan-2-yl)-5-(1-(methylamino)ethyl)phenyl)benzenesulfonamide]
pIC50: 5.30 to 6.00

Further lines, results first:

pIC50: 4.30 to 4.70
Structure (SMILES): CNCc1ccc(-c2ccc[nH]2)c(NS(=O)(=O)c2ccccc2)c1 [IA-50, N-(5-((methylamino)methyl)-2-(1H-pyrrole-2-yl)phenyl)benzenesulfonamide]

pIC50: 4.30 to 4.70
Structure (SMILES): CNCc1ccc(-c2cn[nH]c2)c(NS(=O)(=O)c2ccccc2)c1 [IA-52]

pIC50: 4.70 to 5.00
Structure (SMILES): CNCc1ccc(-c2cnn(C)c2)c(NS(=O)(=O)c2ccccc2)c1 [IA-56, N-(2-(1-methyl-1H-pyrazole-4-yl)-5-((methylamino)methyl)phenyl)benzenesulfonamide]

pIC50: 4.70 to 5.00
Structure (SMILES): CNCc1ccc(-c2cnc[nH]2)c(NS(=O)(=O)c2ccccc2)c1 [IA-61, N-(2-(1H-imidazol-5-yl)-5-((methylamino)methyl)phenyl)benzenesulfonamide]

pIC50: 4.00 to 4.30
Structure (SMILES): O=S(=O)(Nc1cc(CNCC(F)(F)F)ccc1-c1ccco1)c1ccccc1 [IA-62]

pIC50: 4.30 to 4.70
Structure (SMILES): O=S(=O)(Nc1cc(/C=N\O)ccc1-c1ccco1)c1ccccc1 [IC-1, N-(2-(furan-2-yl)-5-((oximido)methyl)phenyl)benzenesulfonamide]

pIC50: 5.30 to 6.00
Structure (SMILES): NCc1ccc(-c2ccco2)c(NS(=O)(=O)c2ccc(F)cc2)c1 [ID-2, N-(5-(aminomethyl)-2-(furan-2-yl)phenyl)-4-fluorobenzenesulfonamide]

pIC50: 5.30 to 6.00
Structure (SMILES): NCc1ccc(NS(=O)(=O)c2ccccc2)c(-c2ccco2)c1 [ID-4, N-(4-(aminomethyl)-2-(furan-2-yl)phenyl)benzenesulfonamide]

pIC50: 5.30 to 6.00
Structure (SMILES): NCc1ccc(NS(=O)(=O)c2ccc(F)cc2)c(-c2ccco2)c1 [ID-6, N-(4-(aminomethyl)-2-(furan-2-yl)phenyl)-4-fluorobenzenesulfonamide]

pIC50: 4.30 to 4.70
Structure (SMILES): O=S(=O)(Nc1cc(CO)ccc1-c1ccco1)c1ccccc1 [IH, N-(2-(furan-2-yl)-5-(hydroxymethyl)phenyl)benzenesulfonamide]

pIC50: 5.30 to 6.00
Structure (SMILES): CC(N)c1ccc(NS(=O)(=O)c2ccccc2)c(-c2ccco2)c1 (stereo not drawn) [IU-2, N-(4-(1-aminoethyl)-2-(furan-2-yl)phenyl)benzenesulfonamide]

pIC50: 5.30 to 6.00
Structure (SMILES): CNC(C)c1ccc(NS(=O)(=O)c2ccccc2)c(-c2ccco2)c1 (stereo not drawn) [IV-1, N-(2-(furan-2-yl)-4-(1-(methylamino)ethyl)phenyl)benzenesulfonamide]

pIC50: 5.30 to 6.00
Structure (SMILES): O=S(=O)(Nc1cc(C2CCCN2)ccc1-c1ccco1)c1ccccc1 (stereo not drawn) [IW, N-(2-(furan-2-yl)-5-(pyrrolidin-2-yl)phenyl)benzenesulfonamide]
